According to patent publication US20250163055A1, “POLYMORPH OF JAK TYROSINE KINASE INHIBITOR AND PREPARATION METHOD THEREFOR” (Prime Gene Therapeutics Co., Ltd., priority 2022, published 2025):
In brackets after ≈: the same amount, converted by molar mass. Entries after “also recorded” stand apart in the source; their conditions may differ. Where two headings read alike, the source gives them in different places.

Tests used:
[1] = Long-term (24-months) stability of crystal forms; assay type: physicochemical; settings: for stability of the crystal form (result in words): long-term stability investigation, summary; for Appearance / Content / Crystal Form / Loss on Drying / Related Substances, Most Unknown Impurity / Related Substances, Total Impurities: long-term stability
Excerpt: The crystals prepared in examples 1, 3 and 6 were selected, and the stability of the crystal forms 1, IIa and IIb was investigated in accordance with the stability research guidelines issued by the National Medical Product Administration. The crystals were packed in pharmaceutical low-density polyethylene bags, and 24 months long-term stability was investigated.

[2] = Drug concentration in the skin after topical administration to skin for 24 hours; assay type: in vivo, rat; settings: topical gel
Experimental: The solid powders of Examples 1 and 6, and the hydrogel preparations thereof were taken, and the PK values of rats administered by oral gavage and transdermal application were respectively determined. Male SD rats were divided into groups, 3 rats in each group, and were administered the compounds obtained in Examples 1 and 6 by oral gavage (oral group). administered Example 1 intravenously (intravenous group), and administered the gel preparations prepared from the compounds of Examples 1 and 6 topically to the skin (transdermal group). Animals were fasted overnight before the experiment, and the fasting time ranged from 10 hours before administration to 4 hours after administration. Blood was collected at 0.25, 0.5, 1, 2, 4, 6, 8 and 24 hours after administration in oral group and transdermal group, and at 0.083, 0.25, 0.5, 1, 2, 4, 6, 8 and 24 hours after administration in intravenous group. […] Plasma was extracted by protein precipitation method, and the extract was analyzed by LC/MS/MS. The transdermal group was administered for 24 hours and the skin at the administration site was peeled off after washing off the epidermal drug, and the drug content in the skin was analyzed by LC/MS/MS after homogenization.

[3] = Transdermal test of gel preparations (transdermal rate); assay type: in vitro ADME; settings: gel preparation; receiving medium 5.0% Tween 80, pH 5.5 phosphate
Excerpt: Take the crystal obtained in Examples 1 or 6 and prepare it into gel preparation (the process for preparing the gel preparation can be: after stirring PEG400, propylene glycol, glycerin, ethanol and the crystal of Example 1 or 6, mix with EDTA aqueous solution, add in the swelled carbomer aqueous solution, adjust pH to be 6 with 10% triethanolamine solution, to obtain the gel). Measure respective transdermal rate (receiving medium 5.0% Tween 80, pH 5.5 phosphate).

[4] = Pharmacokinetic experiment in male SD rats (oral, intravenous, transdermal); assay type: in vivo, rat
Experimental: The solid powders of Examples 1 and 6, and the hydrogel preparations thereof were taken, and the PK values of rats administered by oral gavage and transdermal application were respectively determined. Male SD rats were divided into groups, 3 rats in each group, and were administered the compounds obtained in Examples 1 and 6 by oral gavage (oral group). administered Example 1 intravenously (intravenous group), and administered the gel preparations prepared from the compounds of Examples 1 and 6 topically to the skin (transdermal group). Animals were fasted overnight before the experiment, and the fasting time ranged from 10 hours before administration to 4 hours after administration. Blood was collected at 0.25, 0.5, 1, 2, 4, 6, 8 and 24 hours after administration in oral group and transdermal group, and at 0.083, 0.25, 0.5, 1, 2, 4, 6, 8 and 24 hours after administration in intravenous group. After being anesthetized with isoflurane using a small animal anesthesia machine, 0.3 mL of whole blood was collected through the fundus venous plexus and placed in a heparin anticoagulant tube. The blood samples were centrifuged at 4° C. and 4000 rpm for 5 min, and plasma was transferred to a centrifuge tube and placed at −80° C. until analysis. Plasma was extracted by protein precipitation method, and the extract was analyzed by LC/MS/MS. The transdermal group was administered for 24 hours and the skin at the administration site was peeled off after washing off the epidermal drug, and the drug content in the skin was analyzed by LC/MS/MS after homogenization.

[5] = Stability of crystal form III on standing (NMR); assay type: physicochemical
Experimental: 15 mg of 2-{3-[3-amino-4-(7H-pyrrolo[2,3-d]pyrimidin-4-yl)-1H-pyrazol-1-yl]-1-(isopropylsulfonyl)azetidin-3-yl}acetonitrile was added to 3 mL of dioxane, then heated to 40° C. to dissolve and the obtained solution is clear. After filtration, the solution was volatilized and crystallized at 40° C. to obtain crystal form III.

[6] = Solubility measurement at different pH (37° C., 24 h); assay type: physicochemical; settings: for solubility at 24 h: 37 °C, thermodynamic from solid, read-out: solubility, concentration
Excerpt: (§1) Solubility Investigation of Different Crystal Forms

[7] = Solubility of crystal forms in 20% propylene glycol at 32° C. over time; assay type: physicochemical; settings: aqueous with cosolvent or surfactant or cyclodextrin, thermodynamic from solid
Excerpt: as §1

## CC(C)S(=O)(=O)N1CC(CC#N)(n2cc(-c3ncnc4[nH]ccc34)c(N)n2)C1 [Example 3, 2-{3-[3-amino-4-(7H-pyrrolo[2,3-d]pyrimidin-4-yl)-1H-pyrazol-1-yl]-1-(isopropylsulfonyl)azetidin-3-yl}acetonitrile crystal form IIa]
[1]
  stability of the crystal form (result in words): gradually absorbed water during standing and was transformed into crystal form IIb
[1]; 0 month
  Appearance: Off-white powder
  Content: 99.8%
  Crystal Form: IIa
  Loss on Drying: 0.06%
  Related Substances, Most Unknown Impurity: 0.06%
  Related Substances, Total Impurities: 0.28%
[1]; 3 months
  Appearance: Off-white powder
  Content: 97.6%
  Crystal Form: IIb
  Loss on Drying: 0.18%
  Related Substances, Most Unknown Impurity: 0.08%
  Related Substances, Total Impurities: 0.28%
[1]; 6 months
  Appearance: Off-white powder
  Content: 97.8%
  Crystal Form: IIb
  Loss on Drying: 0.19%
  Related Substances, Most Unknown Impurity: 0.11%
  Related Substances, Total Impurities: 0.27%
[1]; 9 months
  Appearance: Off-white powder
  Content: 97.9%
  Crystal Form: IIb
  Loss on Drying: 0.24%
  Related Substances, Most Unknown Impurity: 0.06%
  Related Substances, Total Impurities: 0.24%
[1]; 12 months
  Appearance: Off-white powder
  Content: 97.8%
  Crystal Form: IIb
  Loss on Drying: 0.20%
  Related Substances, Most Unknown Impurity: 0.09%
  Related Substances, Total Impurities: 0.22%
[1]; 18 months
  Appearance: Off-white powder
  Content: 98.0%
  Crystal Form: IIb
  Loss on Drying: 0.16%
  Related Substances, Most Unknown Impurity: 0.07%
  Related Substances, Total Impurities: 0.26%
[1]; 24 months
  Appearance: Off-white powder
  Content: 97.8%
  Crystal Form: IIb
  Loss on Drying: 0.25%
  Related Substances, Most Unknown Impurity: 0.08%
  Related Substances, Total Impurities: 0.29%

## CC(C)S(=O)(=O)N1CC(CC#N)(n2cc(-c3ncnc4[nH]ccc34)c(N)n2)C1 [Example 6, 2-{3-[3-amino-4-(7H-pyrrolo[2,3-d]pyrimidin-4-yl)-1H-pyrazol-1-yl]-1-(isopropylsulfonyl)azetidin-3-yl}acetonitrile crystal form IIb]
[1]
  stability of the crystal form (result in words): better chemical stability; also recorded: good stability
[1]; 0 month
  Appearance: Off-white
  Content: 99.7%
  Crystal Form: IIb
  Loss on Drying: 0.36%
  Related Substances, Most Unknown Impurity: 0.07%
  Related Substances, Total Impurities: 0.38%
[1]; 3 months
  Appearance: Off-white
  Content: 99.7%
  Crystal Form: IIb
  Loss on Drying: 0.36%
  Related Substances, Most Unknown Impurity: 0.08%
  Related Substances, Total Impurities: 0.38%
[1]; 6 months
  Appearance: Off-white
  Content: 99.6%
  Crystal Form: IIb
  Loss on Drying: 0.39%
  Related Substances, Most Unknown Impurity: 0.08%
  Related Substances, Total Impurities: 0.37%
[1]; 9 months
  Appearance: Off-white
  Content: 99.5%
  Crystal Form: IIb
  Loss on Drying: 0.34%
  Related Substances, Most Unknown Impurity: 0.08%
  Related Substances, Total Impurities: 0.38%
[1]; 12 months
  Appearance: Off-white
  Content: 99.6%
  Crystal Form: IIb
  Loss on Drying: 0.30%
  Related Substances, Most Unknown Impurity: 0.07%
  Related Substances, Total Impurities: 0.37%
[1]; 18 months
  Appearance: Off-white
  Content: 99.6%
  Crystal Form: IIb
  Loss on Drying: 0.31%
  Related Substances, Most Unknown Impurity: 0.07%
  Related Substances, Total Impurities: 0.39%
[1]; 24 months
  Appearance: Off-white
  Content: 99.7%
  Crystal Form: IIb
  Loss on Drying: 0.32%
  Related Substances, Most Unknown Impurity: 0.08%
  Related Substances, Total Impurities: 0.39%
[2]
  drug concentration retained in animal skin relative to crystal form I: up to 7 times
[3]
  transdermal performance / transdermal absorption (result in words): inferior to crystal form I in transdermal absorption
[4]; oral group (gavage)
  AUC(0-inf): 537 ng·h/mL
  Cmax: 114 ng/mL
  F: 22%
  T1/2: 3.40 h
  Tmax: 3.17 h

## CC(C)S(=O)(=O)N1CC(CC#N)(n2cc(-c3ncnc4[nH]ccc34)c(N)n2)C1 [Example 8, 2-{3-[3-amino-4-(7H-pyrrolo[2,3-d]pyrimidin-4-yl)-1H-pyrazol-1-yl]-1-(isopropylsulfonyl)azetidin-3-yl}acetonitrile crystal form III]
[5]
  crystallinity and stability (result in words): poor crystallinity and stability
[5]; after standing
  impurities generated after standing (nuclear magnetic resonance): about 10%

## CC(C)S(=O)(=O)N1CC(CC#N)(n2cc(-c3ncnc4[nH]ccc34)c(N)n2)C1 [Example 1, 2-{3-[3-amino-4-(7H-pyrrolo[2,3-d]pyrimidin-4-yl)-1H-pyrazol-1-yl]-1-(isopropylsulfonyl)azetidin-3-yl}acetonitrile crystal form I]
[1]; listed as Crystal form I
  stability of the crystal form (result in words): good stability
[1]; listed as crystal form I
  stability of the crystal form (result in words): better chemical stability
[1]; 0 month
  Appearance: Off-white powder
  Content: 99.9%
  Loss on Drying: 0.08%
  Related Substances, Most Unknown Impurity: 0.17%
  Related Substances, Total Impurities: 0.58%
[1]; 3 months
  Appearance: Off-white powder
  Content: 100.1%
  Loss on Drying: 0.06%
  Related Substances, Most Unknown Impurity: 0.16%
  Related Substances, Total Impurities: 0.57%
[1]; 6 months
  Appearance: Off-white powder
  Content: 100.0%
  Loss on Drying: 0.08%
  Related Substances, Most Unknown Impurity: 0.17%
  Related Substances, Total Impurities: 0.57%
[1]; 9 months
  Appearance: Off-white powder
  Content: 99.8%
  Loss on Drying: 0.11%
  Related Substances, Most Unknown Impurity: 0.17%
  Related Substances, Total Impurities: 0.57%
[1]; 12 months
  Appearance: Off-white powder
  Content: 99.9%
  Loss on Drying: 0.09%
  Related Substances, Most Unknown Impurity: 0.17%
  Related Substances, Total Impurities: 0.55%
[1]; 18 months
  Appearance: Off-white powder
  Content: 99.7%
  Loss on Drying: 0.12%
  Related Substances, Most Unknown Impurity: 0.18%
  Related Substances, Total Impurities: 0.62%
[1]; 24 months
  Appearance: Off-white powder
  Content: 99.8%
  Loss on Drying: 0.10%
  Related Substances, Most Unknown Impurity: 0.16%
  Related Substances, Total Impurities: 0.59%
[3]
  transdermal performance / transdermal absorption (result in words): better transdermal performance
[6]; pH 6.8, aqueous buffer, pH 6.8, 37° C.
  solubility at 24 h: 1.2 µg/mL (≈ 3 µM)
[6]; pH 7, aqueous buffer, pH 7.0, 37° C.
  solubility at 24 h: 1.3 µg/mL (≈ 3.25 µM)
[6]; pH 8, aqueous buffer, pH 8.0, 37° C.
  solubility at 24 h: 1.2 µg/mL (≈ 3 µM)
[6]; summary
  solubility compared with crystal form IIb (result in words): higher solubility and oral bioavailability than crystal form IIb
[4]; male, SD, rat, plasma, iv, intravenous group
  half-life: 2.49 h
[4]; male, SD, rat, plasma, iv, intravenous group, read-out: AUC0-inf
  AUC(0-inf): 496 ng·h/mL
[4]; male, SD, rat, plasma, po, oral group (gavage)
  half-life: 5.33 h
[4]; male, SD, rat, plasma, po, oral group (gavage), read-out: AUC0-inf
  AUC(0-inf): 941 ng·h/mL
[4]; male, SD, rat, plasma, po, oral group (gavage), read-out: Cmax
  Cmax: 111 ng/mL
[4]; male, SD, rat, plasma, po, oral group (gavage), read-out: Tmax
  Tmax: 2.67 h
[4]; oral group (gavage)
  F: 37%
[4]; rat, plasma, intravenous group
  clearance: 69.2 mL/min/kg
[4]; rat, plasma, intravenous group, read-out: Vss
  Vd: 4.93 L/kg
[7]
  solubility at 18 h: 20.2 µg/mL (≈ 50.4 µM)
